Values of other authors in patent publication US20070264289A1, “COMPOSITIONS AND METHODS OF ADMINISTERING DOXEPIN TO MUCOSAL TISSUE” (EOT Research Inc., priority 2003, published 2007).
Counter-ions that a name gives are not always drawn.

What was measured:
[1] = metabolite formed in the liver after systemic absorption of doxepin
[2] = systemic doxepin; drowsiness in a significant number of patients at this range

| half-life [1] [h] | target plasma therapeutic range for treatment of depression [2] [ng/mL] | SMILES |
| --- | --- | --- |
| 28 to 52 |  | CNCCC=C1c2ccccc2COc2ccccc21 [Desmethyldoxepin, desmethyldoxepin] |
|  | 30 to 150 | CN(C)CCC=C1c2ccccc2COc2ccccc21 [doxepin, N,N-dimethyldibenz(b,e)oxepin-propylamine hydrochloride] |
